Legend:
Experiment in all cases: relative viability (nuclei count vs DMSO), 5 days (fraction); higher = more cells survive
CUDC-101 = compound: C#Cc1cccc(Nc2ncnc3cc(OC)c(OCCCCCCC(=O)NO)cc23)c1 [CUDC-101]
Procedure, shortened: (§1)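 Lung cancer cell lines in 1536-well plates were exposed by pinning to five library-drug doses (not always all listed) √10 apart, following an overnight hold at 37 °C. MetaXpress counted Hoechst-stained nuclei from 4× images taken after 5 days without medium change. Viability is the median ratio of treated-well to vehicle-well nuclei across plates. Plates required control CV below 25% and at least one doubling.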

[1] = compound: C1=CC=C2C(=C1)N=C(S2)C(C#N)C3=NC(=NC=C3)NCCC4=CN=CC=C4
Procedure, shortened: as §1

NVP-TAE684 = compound: COc1cc(N2CCC(N3CCN(C)CC3)CC2)ccc1Nc1ncc(Cl)c(Nc2ccccc2S(=O)(=O)C(C)C)n1 [NVP-TAE684]
Procedure, shortened: as §1

Vandetanib = compound: COc1cc2/c(=N/c3ccc(Br)cc3F)nc[nH]c2cc1OCC1CCN(C)CC1 [Vandetanib]
Procedure, shortened: as §1

Cell Line	relative viability (CUDC-101; 0.01 µM)	relative viability (CUDC-101; 0.03162 µM)	relative viability (CUDC-101; 0.1 µM)	relative viability (CUDC-101; 0.3162 µM)	relative viability (CUDC-101; 1 µM)	relative viability ([1]; 0.005 µM)	relative viability ([1]; 0.01581 µM)	relative viability ([1]; 0.05 µM)	relative viability ([1]; 0.1581 µM)	relative viability ([1]; 0.5 µM)	relative viability (NVP-TAE684; 0.2 µM)	relative viability (NVP-TAE684; 0.6325 µM)	relative viability (NVP-TAE684; 2 µM)	relative viability (Vandetanib; 0.02 µM)	relative viability (Vandetanib; 0.06325 µM)	relative viability (Vandetanib; 0.2 µM)	relative viability (Vandetanib; 0.6325 µM)	relative viability (Vandetanib; 2 µM)
NCI-H1793	0.95	0.707	0.825	0.92	0.613	0.716	0.906	0.852	1.05	0.925	0.826	0.875	0.816	1.01	0.821	0.833	0.765	0.781
HARA	1.01	0.942	0.774	0.861	0.39	1.1	0.769	0.994	1.09	0.93		0.838	0.667	1.13	0.939	0.914	0.899	0.942
NCI-H1648	1.15	0.59	0.758	0.741	0.376	0.704	0.812	0.764	1.19	0.75	0.715	0.713	0.363	0.862	0.824	0.745	0.915	0.561
LXF-289	1.01	1.03	0.997	0.971	0.908	0.925	1.09	0.968	1.06	0.948	1.02	1.01	0.907	1.01	1.02	1.03	0.985	0.968
201T	0.984	0.97	0.964	1.03	0.829	0.963	0.876	1.01	1.03	0.89	1.05	0.958	0.875	0.951	0.951	1.01	0.934	0.941
LCLC-103H	0.987	1.01	1.06	1.05	0.926	0.928	0.952	0.955	1.07	0.947	1.08	0.956	0.938	0.959	0.92	1.05	0.899	0.931
NCI-H520	0.997	0.914	0.982	1.02	0.686	0.847	0.973	0.953	0.968	0.96	0.969	0.986	0.767	0.995	0.986	0.925	0.95	0.938
RERF-LC-KJ	1	1.02	1.01	0.98	0.801	0.988	1.04	0.953	1.07	0.895	0.971	0.969	0.79	0.962	0.954	0.963	0.927	0.815
A549	1.04	0.967	1	1.04	0.799	0.914	1.03	0.969	1.05	0.901	1.1	0.951	0.585	1	0.894	0.913	0.907	0.922
NCI-H1975	0.996	0.917	0.934	1.03	0.91	0.858	0.912	1.01	1.1	0.653	0.974	0.926	0.608	0.931	0.888	0.871	0.997	0.805
PC-3 [JPC-3]	1.05	0.972	0.522	0.542	0.431	0.85	0.966	1.01	1.15	1.07	1.08	0.945	0.984	1	0.922	0.983	0.653	0.507
EPLC-272H	1.04	0.9	0.838	0.79	0.418	0.915	0.882	0.958	1.11	0.895	0.9	0.667	0.688	0.941	0.834	0.975	0.941	0.923
Calu-6	1.03	0.998	0.979	0.993	0.857	0.999	0.983	0.978	1.12	0.912	0.937	0.992	0.758	0.958	0.946	1.02	0.988	0.95

From the supplement of paper PMC10307832
